Experiment: recombinant UMI read abundance after kanamycin selection (control-corrected) (log10(CPM+1)); higher = more efficient recombination; extreme values may be limits of the assay; sequences stand for … in AGTGCAGAGAAAATCGGCCAGTTTTCTCTGCCTGCAGTCCGCATGCCGTGGGACCCCTTGGGTTCTAACCTGTTGCCTAGATTTATGCAGCGGACTGCCTTTCTCCCAAAGTGATAAACCGG…AGGTTGGTTTCACT; site = the 11-nt donor
Method in brief: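 Under IPTG (0.07 mM) plus kanamycin, or without selection, Escherichia coli carrying a UMI-tagged donor and donor-binding-loop pair library and a target plasmid for the IS621 bridge recombinase were plated in two replicates. Recombinant UMIs were PCR-amplified across the donor–target junction and sequenced. Counts were converted to CPM, averaged over replicates, scaled by control-derived factors and reported as log10(CPM+1).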
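Also: IS621 bridge recombinase in Escherichia coli cells against a fixed T5 target plasmid.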

Sequence	recombinant UMI read abundance (log10)
CCTAATACATGGACCGGTTTTCCCGGTAATCCGTATTTGGC (site CCTACTACTGC)	0.0125
CCTAATACATGGACCGGTTTTCCCGGTAATCCGTATTTGGC (site CCTAGTACTGC)	0
CCTAATACATGGACCGGTTTTCCCGGTAATCCGTATTTGGC (site CCTATTACTGC)	0
CCTAATACATGGACCGGTTTTCCCGGTAATCCGTATTTGGC (site CCTCATACTGC)	0
CCTAATACATGGACCGGTTTTCCCGGTAATCCGTATTTGGC (site CCTGATACTGC)	0.00582
CCTAATACATGGACCGGTTTTCCCGGTAATCCGTATTTGGC (site CCTTATACTGC)	0
CCTAATACATGGACCGGTTTTCCCGGTAATCCGTATTTGGC (site CGTAATACTGC)	0
CCTAATACATGGACCGGTTTTCCCGGTAATCCGTATTTGGC (site CTTAATACTGC)	0
CCTAATACATGGACCGGTTTTCCCGGTAATCCGTATTTGGC (site GCTAATACTGC)	0
CCTAATACATGGACCGGTTTTCCCGGTAATCCGTATTTGGC (site TCTAATACTGC)	0
CCTAATTCATGGACCGGTTTTCCCGGTAATCCGTATTTGAT (site CCTAATTCTAT)	0
CCTACAGCATGGACCGGTTTTCCCGGTAATCCGTATTTGAT (site CCTAAAGCTAT)	0
CCTACAGCATGGACCGGTTTTCCCGGTAATCCGTATTTGAT (site CCTACAGCTAT)	0.00631
CCTACAGCATGGACCGGTTTTCCCGGTAATCCGTATTTGAT (site CCTAGAGCTAT)	0
CCTACAGCATGGACCGGTTTTCCCGGTAATCCGTATTTGAT (site CCTATAGCTAT)	0.002
CCTAGAGCATGGACCGGTTTTCCCGGTAATCCGTATTTGAT (site CCTAAAGCTAT)	0
CCTAGAGCATGGACCGGTTTTCCCGGTAATCCGTATTTGAT (site CCTACAGCTAT)	0.00404
CCTAGAGCATGGACCGGTTTTCCCGGTAATCCGTATTTGAT (site CCTAGAGCTAT)	0.00624
CCTAGAGCATGGACCGGTTTTCCCGGTAATCCGTATTTGAT (site CCTATAGCTAT)	0
CCTAGCACATGGACCGGTTTTCCCGGTAATCCGTATTTGGT (site CCTAGCACTAC)	0.00677
CCTAGGTCATGGACCGGTTTTCCCGGTAATCCGTATTTGAA (site CCTAGGTCTTT)	0.213
CCTAGTACATGGACCGGTTTTCCCGGTAATCCGTATTTGGC (site CCTAATACTGC)	0
CCTAGTACATGGACCGGTTTTCCCGGTAATCCGTATTTGGC (site CCTACTACTGC)	0

Sequence	recombinant UMI read abundance (log10)
CCTAGTACATGGACCGGTTTTCCCGGTAATCCGTATTTGGC (site CCTAGTACTGC)	0
CCTAGTACATGGACCGGTTTTCCCGGTAATCCGTATTTGGC (site CCTATTACTGC)	0
CCTAGTTCATGGACCGGTTTTCCCGGTAATCCGTATTTGAA (site CCTAGTTCTTT)	0
CCTATGTCATGGACCGGTTTTCCCGGTAATCCGTATTTGTC (site CCTATGTCTGA)	0
CCTCACTCATGGACCGGTTTTCCCGGTAATCCGTATTTGCA (site CCTCACTCTTG)	0.399
CCTCATACATGGACCGGTTTTCCCGGTAATCCGTATTTGGC (site CCTAATACTGC)	0
CCTCATACATGGACCGGTTTTCCCGGTAATCCGTATTTGGC (site CCTCATACTGC)	0
CCTCATACATGGACCGGTTTTCCCGGTAATCCGTATTTGGC (site CCTGATACTGC)	0
CCTCATACATGGACCGGTTTTCCCGGTAATCCGTATTTGGC (site CCTTATACTGC)	0
CCTCTCTCATGGACCGGTTTTCCCGGTAATCCGTATTTGTA (site CATCTCTCTTA)	0.00925
CCTCTCTCATGGACCGGTTTTCCCGGTAATCCGTATTTGTA (site CCTCTCTCTTA)	0.53
CCTCTCTCATGGACCGGTTTTCCCGGTAATCCGTATTTGTA (site CGTCTCTCTTA)	0
CCTCTCTCATGGACCGGTTTTCCCGGTAATCCGTATTTGTA (site CTTCTCTCTTA)	0.0036
CCTGACACATGGACCGGTTTTCCCGGTAATCCGTATTTGTC (site CCTGACACTGA)	0
CCTGCAGCATGGACCGGTTTTCCCGGTAATCCGTATTTGTG (site CCTGCAGCTCA)	0.0206
CCTGCCGCATGGACCGGTTTTCCCGGTAATCCGTATTTGCC (site CCTGCCGCTGG)	0
CCTGGTCCATGGACCGGTTTTCCCGGTAATCCGTATTTGCA (site CCAGGTCCTTG)	0
CCTGGTCCATGGACCGGTTTTCCCGGTAATCCGTATTTGCA (site CCCGGTCCTTG)	0.00677
CCTGGTCCATGGACCGGTTTTCCCGGTAATCCGTATTTGCA (site CCGGGTCCTTG)	0
CCTGGTCCATGGACCGGTTTTCCCGGTAATCCGTATTTGCA (site CCTGGTCCTTG)	0
CCTTAGGCATGGACCGGTTTTCCCGGTAATCCGTATTTGTT (site CCTTAGGCTAA)	0.0132
CCTTATACATGGACCGGTTTTCCCGGTAATCCGTATTTGGC (site CCTAATACTGC)	0
CCTTATACATGGACCGGTTTTCCCGGTAATCCGTATTTGGC (site CCTCATACTGC)	0.021

Sequence	recombinant UMI read abundance (log10)
CCTTATACATGGACCGGTTTTCCCGGTAATCCGTATTTGGC (site CCTGATACTGC)	0
CCTTATACATGGACCGGTTTTCCCGGTAATCCGTATTTGGC (site CCTTATACTGC)	0
CCTTGAACATGGACCGGTTTTCCCGGTAATCCGTATTTGCT (site CCTTGAACTAG)	0
CCTTGCCCATGGACCGGTTTTCCCGGTAATCCGTATTTGAT (site ACTTGCCCTAT)	0.00442
CCTTGCCCATGGACCGGTTTTCCCGGTAATCCGTATTTGAT (site CCTTGCCCTAT)	0.00286
CCTTGCCCATGGACCGGTTTTCCCGGTAATCCGTATTTGAT (site GCTTGCCCTAT)	0.00408
CCTTGCCCATGGACCGGTTTTCCCGGTAATCCGTATTTGAT (site TCTTGCCCTAT)	0.00903
CGAACATCATGGACCGGTTTTCCCGGTAATCCGTATTTGGA (site CGAACATCTTC)	1.93
CGAACGTCATGGACCGGTTTTCCCGGTAATCCGTATTTGCG (site CGAACGTCTCG)	2.37
CGAAGATCATGGACCGGTTTTCCCGGTAATCCGTATTTGCT (site CGAAGATCTAG)	1.51
CGAAGATCATGGACCGGTTTTCCCGGTAATCCGTATTTGCT (site CGATCATCTAG)	0
CGAAGGACATGGACCGGTTTTCCCGGTAATCCGTATTTGGT (site CGAAGGACTAC)	1.65
CGAAGTGCATGGACCGGTTTTCCCGGTAATCCGTATTTGCC (site CGAAGTGCTGG)	0.751
CGAAGTGCATGGACCGGTTTTCCCGGTAATCCGTATTTGTT (site CGAAGTGCTAA)	2.57
CGAATCCCATGGACCGGTTTTCCCGGTAATCCGTATTTGCA (site CGAATCCCTTG)	1.55
CGAATTACATGGACCGGTTTTCCCGGTAATCCGTATTTGGC (site CGAATTACTGC)	1.14
CGAATTCCATGGACCGGTTTTCCCGGTAATCCGTATTTGCG (site CGAATTCCTCG)	0.935
CGAATTCCATGGACCGGTTTTCCCGGTAATCCGTATTTGTT (site CGAATTCCTAA)	0.99
CGAATTCCATGGACCGGTTTTCCCGGTAATCCGTATTTGTT (site CGGAATCCTAA)	0
CGACACGCATGGACCGGTTTTCCCGGTAATCCGTATTTGTT (site CGACACGCTAA)	2
CGACCATCATGGACCGGTTTTCCCGGTAATCCGTATTTGGC (site CGACCATCTGC)	3.07
CGACCGTCATGGACCGGTTTTCCCGGTAATCCGTATTTGCA (site CGACCGTCTTG)	3.11
